Results on one compound are retold here after ChEMBL document CHEMBL5226341, “Discovery of a Potent FLT3 Inhibitor (LT-850-166) with the Capacity of Overcoming a Variety of FLT3 Mutations” (J Med Chem, 2021).

Data set [1] concerns MV4-11. As to the kind of experiment: Induction of apoptosis in human MV4-11 cells assessed as late apoptotic cells at 10 nM incubated for 24 hrs by AnnexinV-FITC/PI staining based flow cytometry (reference value: 4.2%). It is filed as functional.
Data set [2] relates to BaF3. As to the kind of experiment: Antiproliferative activity against mouse BaF3 cells harboring FLT3-ITD-F691L mutant assessed as residual cell viability at 10 nM incubated for 72 hrs by CellTiterGlo luminescent assay. The data set is classed as functional. On the technique in general: ATP-based viability assays read luminescence as a measure of living cells.
The test system of data set [3] is Receptor-type tyrosine-protein kinase FLT3 (Homo sapiens), P36888 [UNDEFINED MUTATION]. Nature of the data set: Inhibition of FLT3-ITD-F691L mutant (unknown origin) transformed in mouse BaF3 cells assessed as inhibition of FLT3 phosphorylation at Tyr589/591 residue incubated for 4 hrs by western blot analysis. It is filed as cell-based. The settings on record: dose 0.1-100 nM. On the technique in general: A western blot detects proteins with antibodies after separation by electrophoresis.

The subject of data set [4] is BaF3. Nature of the data set: Antiproliferative activity against mouse BaF3 cells harboring FLT3-ITD-N676D mutant assessed as reduction in cell viability measured after 72 hrs by CellTiterGlo luminescent assay. It is filed as functional, cell-based. The settings on record: BaF3, 72 h.
Data set [5] concerns MV4-11. Nature of the data set: Antitumor activity against human MV4-11 cells xenografted in BALB/c mouse assessed as inhibition rate of tumor weight at 15 mg/kg, iv QD for 21 days by vernier caliper analysis. The settings on record: MV4-11, 504 h, time 21 day. It is filed as functional. (In general: A xenograft is tissue or cells of one species grown in another, often human tumour cells in immunodeficient mice.)

Data set [6] relates to MV4-11. As to the kind of experiment: Induction of apoptosis in human MV4-11 cells assessed as early apoptotic cells at 50 nM incubated for 24 hrs by AnnexinV-FITC/PI staining based flow cytometry (reference value: 3.09%). The data set is classed as functional.
Data set [7] in a line: Toxicity in BALB/c mouse xenografted with human MV4-11 cells assessed as morphological changes in lung at 15 mg/kg, iv for 21 days by H and E staining based analysis. The data set is classed as organism-based. The settings on record: in vivo, 504 h, time 21 day.
A short description of data set [8]: Toxicity in ICR mouse assessed as effect on animal's survival rate at 100 mg/kg, iv administered as single dose and measured for 14 days. The data set is classed as organism-based. The settings on record: in vivo, 336 h, time 14 day.
A short description of data set [9]: Oral bioavailability in Sprague-Dawley rat at 10 mg/kg measured for 24 hrs by LC-MS/MS analysis. The settings on record: in vivo. It is filed as ADME, organism-based.
Data set [10] deals with MV4-11. Nature of the data set: Induction of apoptosis in human MV4-11 cells assessed as early apoptotic cells at 10 nM incubated for 24 hrs by AnnexinV-FITC/PI staining based flow cytometry (reference value: 3.09%). The data set is classed as functional.
The nature of data set [11]: Initial drug concentration in Sprague-Dawley at 1 mg/kg, iv by LC-MS/MS analysis. It is filed as ADME, organism-based. The settings on record: rat, in vivo.
Data set [12] relates to HCD-57. As to the kind of experiment: Antiproliferative activity against mouse HCD-57 cells harboring FLT3-D835Y mutant assessed as reduction in cell viability measured after 72 hrs by CellTiterGlo luminescent assay. It is filed as functional, cell-based.
Data set [13] is described as follows: Toxicity in ICR mouse assessed as behavioural changes at 100 mg/kg, iv administered as single dose and measured for 14 days. It is filed as organism-based. The settings on record: in vivo, 336 h, time 14 day.
For data set [14], the target named is Receptor-type tyrosine-protein kinase FLT3 (Homo sapiens) (UniProt P36888). Nature of the data set: Inhibition of FLT3 in human MV4-11 cells assessed as inhibition of ERK phosphorylation at Thr202/Tyr204 residue incubated for 4 hrs by western blot analysis. The data set is classed as cell-based. The settings on record: dose 0.1-100 nM.

Activity calls are given as the source filed them. No cut-off for these calls is given here.

Usually IC50 stands for the concentration that gives 50% inhibition. In general, inhibition in vivo refers to the percentage by which the read-out fell short of the control. What is called bioavailability is dose-corrected exposure relative to a reference, in per cent. Read a high bioavailability as good availability.

Sequence of Receptor-type tyrosine-protein kinase FLT3 (Homo sapiens), P36888 [UNDEFINED MUTATION] (P36888 whole entry, looked up, stated change not applied): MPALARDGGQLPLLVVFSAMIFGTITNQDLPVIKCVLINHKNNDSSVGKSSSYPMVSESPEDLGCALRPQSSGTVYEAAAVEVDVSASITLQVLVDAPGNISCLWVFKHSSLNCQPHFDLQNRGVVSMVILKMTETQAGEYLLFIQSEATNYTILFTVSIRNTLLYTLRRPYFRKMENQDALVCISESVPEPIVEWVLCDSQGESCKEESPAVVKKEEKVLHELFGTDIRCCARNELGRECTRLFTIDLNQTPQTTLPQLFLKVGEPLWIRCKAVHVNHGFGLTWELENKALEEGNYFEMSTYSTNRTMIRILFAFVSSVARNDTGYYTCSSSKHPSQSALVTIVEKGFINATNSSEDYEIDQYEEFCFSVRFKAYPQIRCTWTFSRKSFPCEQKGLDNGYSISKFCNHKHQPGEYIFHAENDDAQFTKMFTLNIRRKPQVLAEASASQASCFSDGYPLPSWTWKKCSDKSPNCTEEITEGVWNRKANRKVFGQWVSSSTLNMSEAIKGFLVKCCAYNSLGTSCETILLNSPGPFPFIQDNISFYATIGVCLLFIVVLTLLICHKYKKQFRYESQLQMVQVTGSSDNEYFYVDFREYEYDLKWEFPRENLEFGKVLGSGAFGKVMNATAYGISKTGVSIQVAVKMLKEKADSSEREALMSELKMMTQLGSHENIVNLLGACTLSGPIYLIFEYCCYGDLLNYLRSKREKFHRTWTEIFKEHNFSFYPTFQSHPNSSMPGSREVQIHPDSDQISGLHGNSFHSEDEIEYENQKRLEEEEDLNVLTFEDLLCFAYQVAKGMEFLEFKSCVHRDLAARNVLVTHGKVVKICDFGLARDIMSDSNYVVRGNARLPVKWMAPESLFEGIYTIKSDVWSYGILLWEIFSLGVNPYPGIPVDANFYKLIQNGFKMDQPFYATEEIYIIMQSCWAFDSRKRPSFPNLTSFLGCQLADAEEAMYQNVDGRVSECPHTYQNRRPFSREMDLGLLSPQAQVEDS
Sequence of Receptor-type tyrosine-protein kinase FLT3 (Homo sapiens) (P36888 whole entry): as the sequence (P36888 whole entry, looked up, stated change not applied) above

Turning to `CCN1CCN(c2ccc(C(=O)Nc3cc(-c4ccc5ncn(Cc6c(Cl)cccc6Cl)c5c4)[nH]n3)cc2)CC1`, the Activity in [1] was 20.5%; in data set [2], 43.16%; in [6], 11.3%; in data set [7], “Non-Toxic”; in [8], “Non-Toxic”; in [10], 10.4%. Further, the Activity result in data set [13] is reported as “Non-Toxic”. Moreover, the inhibition entry in data set [3] and in data set [14] was “Dose-Dependent Effect” throughout. The half-maximal inhibitory concentration (IC50) in [4] was determined as 42.4 nM. Also, in data set [5], the inhibition in vivo at 15 mg/kg was determined as 82.7%. In addition, the bioavailability in [9] was 1.3%. For the same compound, in [11], the C0 came to 368 ng/mL. Moreover, in data set [12], the outcome was Active.
